Test results: patent EP0294258A1, “Hydrazine derivatives, process for obtaining them and pharmaceutical composition containing them” (priority 1987, dated 1988)
Read-outs that look alike come from different tables or passages of the source.

Key:
[1] = Acute toxicity (DL 50); conditions: in vivo
[2] = test system: rat spontanément hypertendu (S.H.R.); experiment: Antihypertensive activity in the spontaneously hypertensive rat (SHR); type: in vivo; conditions: for minimal effective dose: Rattus norvegicus, read-out: Activité anti-hypertensive SHR Dose minimale active
[3] = test system: souris; experiment: Oxotremorine test; type: in vivo; conditions: à forte dose
[4] = test system: souris; experiment: Motor incoordination; type: in vivo; conditions: I.P.
[5] = test system: souris; experiment: Apomorphine test; conditions: in vivo
[6] = test system: souris; experiment: Analgesic activity, hot plate; type: in vivo; conditions: I.P.
[7] = test system: souris; experiment: Hypothermia; type: in vivo; conditions: I.P.
[8] = test system: souris; experiment: Spontaneous motility; type: in vivo; conditions: I.P.
[9] = test system: souris; experiment: Antagonism of amphetamine hypermotility; type: in vivo; conditions: I.P.
[10] = test system: souris; experiment: Exploratory activity; type: in vivo; conditions: Mus musculus, ip; I.P.; read-out: diminue l'activité d'exploration D.E.50
[11] = test system: rat normotendu; experiment: Cardiovascular effects in the normotensive rat; type: in vivo; conditions: 50 mg.kg^-1 I.P.
[12] = test system: rat; experiment: Anti-inflammatory activity, carrageenan test; type: in vivo; conditions: I.P.
[13] = test system: souris; experiment: Yohimbine test; conditions: in vivo
[14] = test system: souris; experiment: Analgesic activity, P.B.Q. test; conditions: in vivo
[15] = test system: souris; experiment: Potentiation of barbiturate sleep; type: in vivo; conditions: I.P.

Row | Structure (SMILES) | LD50 ([1]; ip, I.P.) [mg/kg] | Activité anti-hypertensive SHR Dose minimale active ([2]; route not given) | minimal effective dose ([2]; ip, I.P.) [mg/kg] | also measured
1 | CC(C)(O)C(=O)NN=Cc1ccccc1Cl [1a, reference compound] | 490 | inactif | – | –
2 | CC(=NNC(=O)CC(C)(C)O)c1ccccc1Cl [1e, reference compound] | 227 | inactif | – | –
3 | CC(O)C(=O)NN=Cc1ccccc1Cl (stereo not shown) [3a, reference compound] | – | inactif | – | LD50 ([1]; route not given): 300 mg/kg
4 | NCC(=O)NN=Cc1ccccc1Cl [7a, reference compound] | 360 | inactif | – | –
5 | CC(C)(O)CC(=O)NN=Cc1ccccc1Cl [1d, reference compound] | 433 | inactif | – | –
6 | NC(=O)C(=O)NN=Cc1ccccc1Cl [9a, reference compound] | > 400 | inactif | – | –
7 | CC(=NNC(=O)C(N)=O)c1ccccc1Cl [Exemple 9, oxamoyl-1 (orthochlorophényl-1 éthylidène-1)-2 hydrazine] | > 400 | – | 12.5 | –
8 | COCC(=O)NN=Cc1ccccc1Cl [6a, reference compound] | 477 | inactif | – | –
9 | CC(=NNC(=O)C(C)(C)O)c1ccc(Cl)cc1 [1b, reference compound] | 150 | inactif | – | –
10 | CC(C)(O)C(=O)NN=Cc1ccc(Cl)cc1 [1c, reference compound] | 660 | inactif | – | –
11 | CSCC(=O)NN=C(C)c1ccccc1Cl [Exemple 8, (méthylthio-2 acétyl)-1 (orthochlorophényl-1 éthylidène-1)-2 hydrazine] | > 400 | – | 12.5 | –
12 | COCC(=O)NN=C(C)c1ccccc1Cl [Exemple 6, (méthoxy-2 acétyl)-1 (orthochlorophényl-1 éthylidène-1)-2 hydrazine] | 200 | – | 6.25 | –
13 | CC(=NNC(=O)CO)c1ccccc1Cl [Exemple 4, (hydroxy-2 acétyl)-1 (orthochlorophényl-1 éthylidène-1)-2 hydrazine] | 583 | – | – | minimal effective dose ([2]; route not given): 3.13 mg/kg
14 | CC(=NNC(=O)C(C)(C)O)c1ccccc1Cl [Exemple 1, (hydroxy-2 isobutyroyl)-1 (orthochlorophényl-1 éthylidène-1)-2 hydrazine] | 482 | – | – | test à l'oxotrémorine [3]: modifie de façon peu nette; incoordination motrice uniquement à forte dose [4]: 50 mg/kg; test à l'apomorphine [5]: inactif; activité analgésique "plaque chauffante" D.E.50 [6]: 6 mg/kg; hypothermie uniquement à forte dose [7]: 50 mg/kg; diminue la motilité spontanée D.E.50 [8]: 10 mg/kg; antagonise l'hypermotilité amphétaminique à partir de (dose) [9]: ≥ 12,5 mg.kg^-1; ED50 [10]: 27 mg/kg; pression artérielle du rat normotendu [11]: sans modifier; rythme cardiaque du rat normotendu [11]: augmente significativement; anti-inflammatoire sur le test à la carraghénine D.E.so [12]: 38 mg/kg; test de la yohimbine [13]: inactif; activité analgésique au test à la P.B.Q. [14]: faible; minimal effective dose ([2]; po, P.O.): 2 mg/kg; fréquence cardiaque ([2]; administration P.O.): n'est pas modifiée de manière significative; action antihypertensive ([2]; administration répétée sur 5 jours, 1,5 mg.kg^-1 P.O.): confirment l'action antihypertensive; diminue la pression artérielle du rat spontanément hypertendu (S.H.R.) D.E.so ([2]; administration unique, I.P.): 1,9 mg.kg^-1; action antihypertensive D.E.50 ([2]; administration unique, P.O.): 2 mg/kg; activité antihypertensive (dose) ([2]; per os, rat SHR printed for MP 440 only): 2 mg/kg; potentialise le sommeil barbiturique dès la dose de [15]: ≥ 12,5 mg.kg^-1
15 | CC(=NNC(=O)C(C)O)c1ccccc1Cl (stereo not shown) [Exemple 3, (hydroxy-2 propanoyl)-1 (orthochlorophényl-1 éthylidène-1)-2 hydrazine] | 240 | – | 12.5 | –
16 | CCC(=NNC(=O)C(C)(C)O)c1ccccc1Cl [Exemple 16, (hydroxy-2 isobutyroyl)-1 (orthochlorophényl-1 propylidène-1)-2 hydrazine] | 179 | – | 6.25 | –
17 | CCCCC(=NNC(=O)C(C)(C)O)c1ccccc1Cl [Exemple 26, (hydroxy-2 isobutyroyl)-1 (chloro-2 phényl-1 pentylidène-1)-2 hydrazine] | > 400 | – | 6.25 | –
18 | CC(=NNC(=O)CN)c1ccccc1Cl [Exemple 7, (amino-2 acétyl)-1 (orthochlorophényl-1 éthylidène-1)-2 hydrazine] | 143 | – | – | minimal effective dose ([2]; po, P.O.): 2 mg/kg
